From ChEMBL document CHEMBL1201862, “PubChem BioAssay data set” (2004)
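Cultured in 96-well plates, cells were exposed to test compound for 48 hours across five concentrations. At the GI50, growth is halved.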 The source made the active and inactive calls. Cut-off read from the data, not from the text of the source: active = GI50 up to about 1.1 µM and inactive = higher.

Legend:
Assay in all cases: NCI anticancer screen, dose series, 48 h
[1] = test system: HCT-116
[2] = test system: K562
[3] = test system: KM12
[4] = test system: LOX IMVI
[5] = test system: MDA-MB-435
[6] = test system: MDA-N
[7] = test system: MOLT-4
[8] = test system: Malme-3M
[9] = test system: NCI-H226
[10] = test system: NCI-H460
[11] = test system: NCI-H522
[12] = test system: OVCAR-3
[13] = test system: OVCAR-5
[14] = test system: SK-MEL-2
[15] = test system: SK-OV-3
[16] = test system: SW-620
[17] = test system: T47D
[18] = test system: UACC-257
[19] = test system: UO-31
[20] = test system: HL-60

Row | Structure (SMILES) | GI50 [1] | GI50 [2] | GI50 [3] | GI50 [4] | GI50 [5] | GI50 [6] | GI50 [7] | GI50 [8] | GI50 [9] | GI50 [10] | GI50 [11] | GI50 [12] | GI50 [13] | GI50 [14] | GI50 [15] | GI50 [16] | GI50 [17] | GI50 [18] | GI50 [19] | GI50 [20]
1 | NS(=O)(=O)c1nnc(NC(=O)C23CC4CC(CC(C4)C2)C3)s1 | > 100 µM (inactive) | > 100 µM (inactive) | > 100 µM (inactive) | > 100 µM (inactive) | > 100 µM (inactive) | > 100 µM (inactive) | > 100 µM (inactive) | > 100 µM (inactive) | > 100 µM (inactive) | 60.1 µM (inactive) | 68.2 µM (inactive) | > 100 µM (inactive) | > 100 µM (inactive) | > 100 µM (inactive) | > 100 µM (inactive) | > 100 µM (inactive) | 90.4 µM (inactive) | > 100 µM (inactive) | > 100 µM (inactive) | 
2 | S=C(Nc1ccc2cn[nH]c2c1)Nc1ccc2cn[nH]c2c1 | 58.5 µM (inactive) | 61.7 µM (inactive) | 53.7 µM (inactive) | 70 µM (inactive) | 58.9 µM (inactive) | 57.4 µM (inactive) |  | > 100 µM (inactive) | 44.1 µM (inactive) | 43 µM (inactive) | 34.1 µM (inactive) | > 100 µM (inactive) | 95.5 µM (inactive) | 35.6 µM (inactive) | > 100 µM (inactive) | > 100 µM (inactive) | 33.5 µM (inactive) | 96.6 µM (inactive) | > 100 µM (inactive) | 
3 | Clc1ccccc1C(Nc1ncccn1)Nc1ncccn1 | > 100 µM (inactive) | > 100 µM (inactive) | > 100 µM (inactive) | > 100 µM (inactive) | 76.6 µM (inactive) | > 100 µM (inactive) | > 100 µM (inactive) |  | > 100 µM (inactive) | > 100 µM (inactive) | > 100 µM (inactive) | > 100 µM (inactive) | > 100 µM (inactive) | > 100 µM (inactive) | > 100 µM (inactive) | > 100 µM (inactive) | > 100 µM (inactive) | > 100 µM (inactive) | > 100 µM (inactive) | > 100 µM (inactive)
4 | CC(C)(C)C(=O)c1c(O)c2ccccc2c2ccccc2c1=O | > 100 µM (inactive) |  | 79.3 µM (inactive) | 47.8 µM (inactive) | > 100 µM (inactive) | > 100 µM (inactive) | > 100 µM (inactive) |  | 49.4 µM (inactive) | > 100 µM (inactive) | 23.7 µM (inactive) | 59.2 µM (inactive) | > 100 µM (inactive) | > 100 µM (inactive) | > 100 µM (inactive) | > 100 µM (inactive) | 52.1 µM (inactive) | > 100 µM (inactive) | 33.2 µM (inactive) | > 100 µM (inactive)
5 | COC(=O)C1Cc2cc3c(cc2C1)CCC3 | > 100 µM (inactive) | > 100 µM (inactive) | > 100 µM (inactive) | > 100 µM (inactive) | > 100 µM (inactive) | > 100 µM (inactive) | > 100 µM (inactive) | > 100 µM (inactive) | > 100 µM (inactive) | > 100 µM (inactive) |  | > 100 µM (inactive) | > 100 µM (inactive) | > 100 µM (inactive) | > 100 µM (inactive) | > 100 µM (inactive) | > 100 µM (inactive) | > 100 µM (inactive) | > 100 µM (inactive) | > 100 µM (inactive)
6 | C[N+]12C=CC=C1C(N1CCCC1)c1sc(-c3ccc(Cl)cc3)cc12 (stereo not drawn) | 16.1 µM (inactive) |  | 17 µM (inactive) | 16 µM (inactive) | 15.7 µM (inactive) | 15.8 µM (inactive) | 16.9 µM (inactive) | 15.6 µM (inactive) | 17 µM (inactive) | 18.1 µM (inactive) | 10.4 µM (inactive) | 13.6 µM (inactive) | 19.2 µM (inactive) | 8.39 µM (inactive) | 18.7 µM (inactive) | 15.9 µM (inactive) | 10.6 µM (inactive) | 15.5 µM (inactive) | 33 µM (inactive) | 
7 | CC(=O)/C(=C\c1ccc(Cl)c(Cl)c1)C(=O)C(C)CN(C)C (stereo not drawn) | 2.13 µM (inactive) |  | 2.18 µM (inactive) | 2.21 µM (inactive) | 3.24 µM (inactive) | 3.62 µM (inactive) | 2.19 µM (inactive) | 8.15 µM (inactive) | 2.39 µM (inactive) | 12.5 µM (inactive) |  | 4.1 µM (inactive) | 10.8 µM (inactive) |  | 16.5 µM (inactive) | 2.69 µM (inactive) | 2.65 µM (inactive) | 10.4 µM (inactive) | 4.01 µM (inactive) | 2 µM (inactive)
8 | CC1CC(NN)=Nc2ccccc2N1 (stereo not drawn) | > 100 µM (inactive) | 49.2 µM (inactive) | > 100 µM (inactive) |  | > 100 µM (inactive) | > 100 µM (inactive) | > 100 µM (inactive) | 16.6 µM (inactive) | > 100 µM (inactive) | > 100 µM (inactive) | > 100 µM (inactive) | > 100 µM (inactive) | > 100 µM (inactive) | > 100 µM (inactive) | > 100 µM (inactive) | > 100 µM (inactive) |  | > 100 µM (inactive) | > 100 µM (inactive) | 60.3 µM (inactive)
9 | COc1cc2cc(C(=O)N3CC(CCl)c4c3cc(NCCN)c3ccccc43)[nH]c2c(OC)c1OC (stereo not drawn) | < 0.01 µM (active) | < 0.01 µM (active) | < 0.01 µM (active) | < 0.01 µM (active) | < 0.01 µM (active) | < 0.0105 µM (active) | < 0.01 µM (active) | < 0.01 µM (active) | 0.0117 µM (active) | < 0.01 µM (active) | < 0.01 µM (active) | 0.0123 µM (active) | < 0.01 µM (active) | < 0.01 µM (active) | < 0.0189 µM (active) | < 0.01 µM (active) | < 0.01 µM (active) | 0.0105 µM (active) | < 0.01 µM (active) | 
10 | CCC1(CC)C(=O)OC(=O)C1(CC)CC | > 100 µM (inactive) | > 100 µM (inactive) | > 100 µM (inactive) | > 100 µM (inactive) | > 100 µM (inactive) | > 100 µM (inactive) | > 100 µM (inactive) |  |  | > 100 µM (inactive) | > 100 µM (inactive) | > 100 µM (inactive) |  | > 100 µM (inactive) | > 100 µM (inactive) | > 100 µM (inactive) | > 100 µM (inactive) |  | > 100 µM (inactive) | > 100 µM (inactive)
11 | COc1ccc(OC)c2sc(N3C(=O)/C(=C/c4ccc(N(C)C)cc4)N=C3c3ccccc3)nc12 | 34.8 µM (inactive) | 79.8 µM (inactive) | 52 µM (inactive) | 41 µM (inactive) | 31.4 µM (inactive) | 22.2 µM (inactive) | 15.5 µM (inactive) |  |  | 92.9 µM (inactive) |  | 58.2 µM (inactive) | > 100 µM (inactive) | 36.9 µM (inactive) | > 100 µM (inactive) | 49.8 µM (inactive) | 38.5 µM (inactive) | > 100 µM (inactive) | 55 µM (inactive) | 20.9 µM (inactive)
12 | CC1CC(C(=O)OC2OC(COC3OC(CO)C(OC4OC(C)C(O)C(O)C4O)C(O)C3O)C(O)C(O)C2O)C2CCC3(C)C(=CCC4(C)C3CCC3C(C)(CO)C(O)C(O)CC34C)C2C1C (stereo not drawn) | 18.2 µM (inactive) | 34.3 µM (inactive) | 17.9 µM (inactive) | 21.7 µM (inactive) | 18.6 µM (inactive) | 19.5 µM (inactive) | 19.6 µM (inactive) |  | 32.5 µM (inactive) | 20.7 µM (inactive) | 13.7 µM (inactive) | 23.3 µM (inactive) | 26.7 µM (inactive) | 18.9 µM (inactive) | 49.1 µM (inactive) | 30.1 µM (inactive) | 18.4 µM (inactive) | > 10 µM (inactive) | > 100 µM (inactive) | 21.6 µM (inactive)
13 | Clc1ccc(/C=C/c2nc(-c3ccc(Cl)cc3)cn3c2nc2ccccc23)cc1 | > 100 µM (inactive) | > 100 µM (inactive) | > 100 µM (inactive) | > 100 µM (inactive) | > 100 µM (inactive) | > 100 µM (inactive) | 45.1 µM (inactive) | > 100 µM (inactive) | > 100 µM (inactive) | > 100 µM (inactive) |  | > 100 µM (inactive) | > 100 µM (inactive) | > 100 µM (inactive) | > 100 µM (inactive) | > 100 µM (inactive) | 88.7 µM (inactive) | > 100 µM (inactive) | > 100 µM (inactive) | > 100 µM (inactive)
14 | C[C@]12C[C@@H](c3ccccc3)Nc3ccccc3N1C(c1ccccc1)=NO2 | 37.9 µM (inactive) | 35.4 µM (inactive) | 33.6 µM (inactive) |  | 24.5 µM (inactive) | 26.2 µM (inactive) | 18 µM (inactive) | 42.9 µM (inactive) | 32.4 µM (inactive) | 52.1 µM (inactive) | 35.9 µM (inactive) | 46.8 µM (inactive) | 33.2 µM (inactive) | 25.6 µM (inactive) | > 100 µM (inactive) | 61.1 µM (inactive) |  | 33.8 µM (inactive) | 29.6 µM (inactive) | 46.2 µM (inactive)
15 | C[C@]12CCC3c4ccc(O)cc4CC[C@H]3C1CC(=O)N(CCN1CCCC1)C2=O (stereo partly drawn) | > 10 µM (inactive) | > 10 µM (inactive) | > 10 µM (inactive) | > 10 µM (inactive) | > 10 µM (inactive) | > 10 µM (inactive) | > 10 µM (inactive) | > 10 µM (inactive) | > 10 µM (inactive) | > 10 µM (inactive) |  | > 10 µM (inactive) | > 10 µM (inactive) | > 10 µM (inactive) | > 10 µM (inactive) | > 10 µM (inactive) | > 10 µM (inactive) | > 10 µM (inactive) | > 10 µM (inactive) | > 10 µM (inactive)
